Data as given in ChEMBL document CHEMBL5247622, “Structural optimization of Imidazo[1, 2-a]pyridine derivatives for the treatment of gastric cancer via STAT3 signaling pathway” (Eur J Med Chem, 2022).
Activity calls are given as the source filed them. The calls are words filed in the database; no cut-off is given here.

Key:
[1] = tested on: AGS; experiment: Antiproliferative activity against human AGS cells assessed as reduction in cell viability incubated for 72 hrs by CCK-8 assay; type: functional, cell-based
[2] = Metabolic stability in human liver microsomes assessed as half life; type: ADME, Microsome
[3] = biological target: Signal transducer and activator of transcription 3 (Homo sapiens) (UniProt P40763); experiment: Inhibition of STAT3 (unknown origin) transcriptional signaling transfected in HEK293T cells at 3 uM incubated for 24 hrs by firefly luciferase gene reporter assay; type: cell-based
[4] = biological target: Signal transducer and activator of transcription 3 (Homo sapiens) (UniProt P40763); experiment: Inhibition of STAT3 in human AGS cells assessed as inhibition of STAT3 phosphorylation level at Tyr705 at 0.3 to 3 uM by western blot assay; type: cell-based; settings: dose 0.3-3 µM
[5] = biological target: Signal transducer and activator of transcription 3 (Homo sapiens) (UniProt P40763); experiment: Inhibition of STAT3 in human MGC-803 cells assessed as inhibition of total STAT3 protein level at 0.3 to 3 uM by western blot assay; type: cell-based; settings: dose 0.3-3 µM
[6] = biological target: Signal transducer and activator of transcription 3 (Homo sapiens) (UniProt P40763); experiment: Inhibition of STAT3 in human AGS cells assessed as reduction of c-Myc protein expression level at 0.3 to 3 uM by western blot assay; type: cell-based; settings: dose 0.3-3 µM
[7] = biological target: Signal transducer and activator of transcription 3 (Homo sapiens) (UniProt P40763); experiment: Inhibition of STAT3 in human AGS cells assessed as reduction of Mcl-1 protein expression level at 0.3 to 3 uM by western blot assay; type: cell-based; settings: dose 0.3-3 µM
[8] = tested on: AGS; experiment: Inhibition of colony formation in human AGS cells at 0.3 to 3 uM incubated for 10 to 15 days by crystal violet staining based assay; type: functional, cell-based; settings: dose 0.3-3 µM, time 10-15 day
[9] = tested on: MGC-803; experiment: Inhibition of colony formation in human MGC-803 cells at 0.3 to 3 uM incubated for 10 to 15 days by crystal violet staining based assay; type: functional, cell-based; settings: dose 0.3-3 µM, time 10-15 day
[10] = tested on: AGS; experiment: Induction of apoptosis in human AGS cells assessed as viable cells at 1 uM incubated for 48 hrs by Annexin V-FITC/PI staining based flow cytometry method (reference value: 94.8 %); type: functional; settings: read-out: Activity
[11] = tested on: AGS; experiment: Induction of apoptosis in human AGS cells assessed as viable cells at 3 uM incubated for 48 hrs by Annexin V-FITC/PI staining based flow cytometry method (reference value: 94.8 %); type: functional; settings: read-out: Activity
[12] = tested on: AGS; experiment: Induction of apoptosis in human AGS cells assessed as early apoptotic cells at 0.3 uM incubated for 48 hrs by Annexin V-FITC/PI staining based flow cytometry method (reference value: 2.38 %); type: functional
[13] = tested on: AGS; experiment: Induction of apoptosis in human AGS cells assessed as early apoptotic cells at 1 uM incubated for 48 hrs by Annexin V-FITC/PI staining based flow cytometry method (reference value: 2.38 %); type: functional
[14] = tested on: AGS; experiment: Induction of apoptosis in human AGS cells assessed as late apoptotic cells at 0.3 uM incubated for 48 hrs by Annexin V-FITC/PI staining based flow cytometry method (reference value: 2.46 %); type: functional
[15] = tested on: AGS; experiment: Induction of apoptosis in human AGS cells assessed as late apoptotic cells at 1 uM incubated for 48 hrs by Annexin V-FITC/PI staining based flow cytometry method (reference value: 2.46 %); type: functional
[16] = tested on: AGS; experiment: Induction of apoptosis in human AGS cells assessed as late apoptotic cells at 3 uM incubated for 48 hrs by Annexin V-FITC/PI staining based flow cytometry method (reference value: 2.46 %); type: functional
[17] = tested on: AGS; experiment: Induction of apoptosis in human AGS cells assessed as necrotic cells at 0.3 uM incubated for 48 hrs by Annexin V-FITC/PI staining based flow cytometry method (reference value: 0.32 %); type: functional
[18] = tested on: AGS; experiment: Induction of apoptosis in human AGS cells assessed as necrotic cells at 1 uM incubated for 48 hrs by Annexin V-FITC/PI staining based flow cytometry method (reference value: 0.32 %); type: functional
[19] = tested on: AGS; experiment: Induction of apoptosis in human AGS cells assessed as necrotic cells at 3 uM incubated for 48 hrs by Annexin V-FITC/PI staining based flow cytometry method (reference value: 0.32 %); type: functional
[20] = tested on: AGS; experiment: Inhibition of cell migration in human AGS cells at 0.03 to 0.3 uM incubated for 48 hrs by wound healing assay based microscopic analysis; type: functional; settings: dose 0.03-0.3 µM
[21] = tested on: AGS; experiment: Inhibition of cell invasion in human AGS cells at 0.03 to 0.3 uM incubated for 12 hrs by crystal violet staining based transwell assay; type: functional; settings: dose 0.03-0.3 µM
[22] = tested on: MGC-803; experiment: Inhibition of cell invasion in human MGC-803 cells at 0.03 to 0.3 uM incubated for 12 hrs by crystal violet staining based transwell assay; type: functional; settings: dose 0.03-0.3 µM
[23] = tested on: MGC-803; experiment: Antitumor activity against human MGC-803 cells xenografted in BALB/c mouse assessed as inhibition of tumor weight at 5 to 15 mg/kg,ip administrated for 21 consecutive days; type: functional, organism-based; settings: dose 5-15 mg/kg
[24] = Toxicity in BALB/c mouse xenografted with human MGC-803 cells assessed as morphological change in liver at 5 mg/kg,ip administrated for 21 consecutive days by hematoxylin and eosin staining method; type: organism-based; settings: in vivo
[25] = Toxicity in BALB/c mouse xenografted with human MGC-803 cells assessed as morphological change in lung at 5 mg/kg,ip administrated for 21 consecutive days by hematoxylin and eosin staining method; type: organism-based; settings: in vivo
[26] = Toxicity in BALB/c mouse xenografted with human MGC-803 cells assessed as morphological change in liver at 15 mg/kg,ip administrated for 21 consecutive days by hematoxylin and eosin staining method; type: organism-based; settings: in vivo
[27] = Toxicity in BALB/c mouse xenografted with human MGC-803 cells assessed as morphological change in lung at 15 mg/kg,ip administrated for 21 consecutive days by hematoxylin and eosin staining method; type: organism-based; settings: in vivo
[28] = Toxicity in BALB/c mouse xenografted with human MGC-803 cells assessed as morphological change in kidney at 15 mg/kg,ip administrated for 21 consecutive days by hematoxylin and eosin staining method; type: organism-based; settings: in vivo
[29] = tested on: MGC-803; experiment: Antitumor activity against human MGC-803 cells xenografted in BALB/c mouse assessed as reduction of Ki67 expression level in tumor at 15 mg/kg,ip administrated for 21 consecutive days by immunohistochemistry analysis; type: functional, organism-based
[30] = biological target: Signal transducer and activator of transcription 3 (Homo sapiens) (UniProt P40763); experiment: In vivo inhibition of STAT3 in BALB/c mouse xenografted with human MGC-803 cells assessed as reduction of STAT3 phosphorylation level at Tyr705 in tumor at 5 mg/kg,ip administrated for 21 consecutive days by immunohistochemistry analysis; type: functional, organism-based
[31] = biological target: Signal transducer and activator of transcription 3 (Homo sapiens) (UniProt P40763); experiment: In vivo inhibition of STAT3 in BALB/c mouse xenografted with human MGC-803 cells assessed as reduction of STAT3 phosphorylation level at Tyr705 in tumor at 15 mg/kg,ip administrated for 21 consecutive days by immunohistochemistry analysis; type: functional, organism-based
[32] = biological target: Signal transducer and activator of transcription 3 (Homo sapiens) (UniProt P40763); experiment: In vivo inhibition of STAT3 in BALB/c mouse xenografted with human MGC-803 cells assessed as reduction of c-Myc expression in tumor at 15 mg/kg,ip administrated for 21 consecutive days by immunohistochemistry analysis; type: functional, organism-based
[33] = biological target: Signal transducer and activator of transcription 3 (Homo sapiens) (UniProt P40763); experiment: In vivo inhibition of STAT3 in BALB/c mouse xenografted with human MGC-803 cells assessed as reduction of Mcl-1 expression in tumor at 5 mg/kg,ip administrated for 21 consecutive days by immunohistochemistry analysis; type: functional, organism-based
[34] = biological target: Signal transducer and activator of transcription 3 (Homo sapiens) (UniProt P40763); experiment: In vivo inhibition of STAT3 in BALB/c mouse xenografted with human MGC-803 cells assessed as reduction of Mcl-1 expression in tumor at 15 mg/kg,ip administrated for 21 consecutive days by immunohistochemistry analysis; type: functional, organism-based

Signal transducer and activator of transcription 3 (Homo sapiens), sequence (P40763 whole entry): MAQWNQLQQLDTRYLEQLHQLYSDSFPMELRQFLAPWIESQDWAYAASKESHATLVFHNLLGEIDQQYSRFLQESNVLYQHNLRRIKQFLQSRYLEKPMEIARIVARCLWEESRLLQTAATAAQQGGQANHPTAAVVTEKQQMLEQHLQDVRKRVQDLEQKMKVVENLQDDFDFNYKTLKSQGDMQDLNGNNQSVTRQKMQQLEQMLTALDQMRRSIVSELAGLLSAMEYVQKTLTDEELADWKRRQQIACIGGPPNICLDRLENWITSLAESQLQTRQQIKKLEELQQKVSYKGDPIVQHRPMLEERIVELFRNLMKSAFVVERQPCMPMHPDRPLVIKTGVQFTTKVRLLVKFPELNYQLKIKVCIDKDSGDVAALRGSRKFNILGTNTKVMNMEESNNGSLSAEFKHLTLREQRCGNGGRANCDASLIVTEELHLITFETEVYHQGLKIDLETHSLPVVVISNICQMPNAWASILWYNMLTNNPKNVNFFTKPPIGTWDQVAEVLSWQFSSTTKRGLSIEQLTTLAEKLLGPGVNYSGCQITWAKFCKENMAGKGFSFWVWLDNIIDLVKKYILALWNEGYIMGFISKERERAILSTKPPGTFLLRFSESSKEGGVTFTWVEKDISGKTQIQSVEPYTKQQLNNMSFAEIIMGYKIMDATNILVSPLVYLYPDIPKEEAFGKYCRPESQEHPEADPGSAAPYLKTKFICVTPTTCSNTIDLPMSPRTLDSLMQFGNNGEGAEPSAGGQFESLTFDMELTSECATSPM

IC50 [1]: 390 nM | half-life [2]: 41.2 min | inhibition [3]: Active | inhibition [4]: Dose-Dependent Effect | inhibition [5]: inactive | inhibition [6]: Active | inhibition [7]: Active | inhibition [30]: Active | inhibition [31]: Active | inhibition [32]: Active | inhibition [33]: Active | inhibition [34]: Active
SMILES: Cc1cc(NC(=O)c2ccc([N+](=O)[O-])o2)ccc1-c1cnc2ccccn12
inhibition [8]: Dose-Dependent Effect | inhibition [9]: Dose-Dependent Effect | viability at 1 µM [10]: 92.1% | viability at 3 µM [11]: 81.3% | Activity [12]: 2.49% | Activity [13]: 4.52% | Activity [14]: 3.15% | Activity [15]: 2.67% | Activity [16]: 6.37% | Activity [17]: 0.62% | Activity [18]: 0.75% | Activity [19]: 0.18% | inhibition [20]: Dose-Dependent Effect | inhibition [21]: Active | inhibition [22]: Active | inhibition [23]: Dose-Dependent Effect | Activity [24]: Non-Toxic | Activity [25]: Non-Toxic | Activity [26]: Non-Toxic | Activity [27]: Non-Toxic | Activity [28]: Non-Toxic | inhibition [29]: Active
